Results from patent US9131688B2, “Strigolactam derivatives as plant growth regulating compounds” (Syngenta Participations AG, priority 2011, dated 2015).

Tests used:
Type in all cases: in vivo
[1] = tested on: Orobanche cumana Wallr. seeds (race 'F'); assay: Germination of preconditioned Orobanche cumana seeds on glass fiber filter paper in petri dishes; conditions: for Germination (%): mean, N = 5 x 100 seeds; for Germination inducing effect on Orobanche cumana seeds (summary in words): summary of Tables 3 to 6
Experimental: The effect of compounds of Formula (I) on germination of Orobanche cumana Wallr. seeds was evaluated on glass fiber filter paper (GFFP) in petri dishes. Seeds were preconditioned at moisture and suitable temperature to become responsive to the specific chemical germination stimulants.
Test compounds were dissolved in DMSO (10 000 mg 1^−1) and stored at room temperature in a desiccators with desiccants. The stock solutions were dissolved with deionised water to the appropriate final test concentration.
Seeds of O. cumana race ‘F’ were collected from a sunflower field in Manzanilla (Seville, Spain) in 2006 (IN146) and 2008 (IN153), respectively and stored at room temperature. To separate seeds from heavy organic debris, a modified sucrose floatation technique as described by Hartman & Tanimonure (Plant Disease (1991), 75, p. 494) was applied. Seeds were filled into a separation funnel and stirred in water. When seeds floated to the surface, the water fraction containing heavy debris was discarded. Seeds were re-suspended in 2.5M sucrose solution (specific gravity of 1.20) and heavy debris was allowed to settle down for 60 min. After removing debris, seeds were disinfected in 1% sodium hypochlorite solution and 0.025% (v/v) Tween 20 for 2 min. The seeds were decanted onto two layers of cheesecloth, rinsed with sterile deionised water and re-suspended in sterile deionised water. Two ml of the seed suspension containing approximately 150-400 seeds were spread evenly on two layers of sterile glass fiber filter paper disc ([…]) in Petri dishes (Ø9 cm). After wetting the discs with 3 ml sterile deionised water, petri dishes were sealed with parafilm. Seeds were incubated for 10 days at 20° C. in the dark for seed conditioning. The upper disc with conditioned seeds was briefly dried, transferred to a petri dish lined with a dry GFFP disc, and wetted with 6 ml of the appropriate test solution. The compounds of formula (I) were tested at concentrations of 0.001, 0.01, and 0.1 mg 1^−1. The strigolactone analogue GR24 was included as positive control and 0.001% DMSO as negative control. All treatments were tested in five replicates. Seeds were re-incubated at 20° C. in the dark and examined for germination 10 days later. The radicles of germinated seeds were stained for 5 min with blue ink (MIGROS, Switzerland) in 5% acetic acid according to Long et al. Seed Science Research (2008), 18, p. 125). After staining, seeds were photographed using a camera stand mounted with a digital SLR camera (Canon EOS 5D). Germination of 100 seeds per replicate was evaluated on digital images. Seeds were considered germinated when the radicle protruded from the seed coat.

[2] = tested on: Orobanche cumana Wallr. seeds (race 'F'); assay: as above; conditions: Table 5; 1.0 mg l^-1; seed lot IN153; mean, N = 5 x 100 seeds
[3] = tested on: Brassica oleracea cv Botrytis (common cauliflower) seeds; assay: Standard paper germination test for Brassica (cauliflower seeds, suboptimal conditions); conditions: 25 μM, 20° C., dark; for stimulation (extra germination compared to the DMSO treatment, expressed as percentage of the DMSO treatment): tropical cauliflower 3C150, seed batch 11B295; for acceleration (hours faster than the DMSO treatment to reach 50% of total germination) / t50 (time needed to reach 50% of total germination): tropical cauliflower 3C150, seed batch 11B552
Experimental: The effect of compounds of Formula (I) on the germination of Brassica oleracea cv Botrytis or common cauliflower was tested on two types of cauliflowers: temperate types and tropical types. These two types were chosen because they display different sensitivities to the light conditions and temperature during germination. Germination of a sensitive temperate type is inhibited by light at 10° C. while for the tropical types germination at 20° is stimulated by the presence of light.
The temperate seed batches tested are part of commercially produced seed batches of various varieties which are known to be sensitive to light at 10° C. These seeds were harvested and cleaned according standard commercial procedures. Ready seed batches were used (Ready indicates the processing level of these seeds: they have been cleaned and sized but received no other treatments). The tropical seed batches tested are part of seed batches produced as basic seed (for maintenance of the parental line) and were processed accordingly.
Germination was assessed using the standard paper germination test for Brassica: Fifty seeds were placed on blue germination paper, which was moistened with the appropriate solutions, in closed oblong germination boxes. Each condition was tested in duplo. Germination boxes were placed in controlled germination cabinets with the appropriate temperature and light conditions. Germination of seeds was counted at regular intervals. Seeds were considered to be germinated when the radical had protruded the testa and endosperm (radical size approximately 1 mm). Germination kinetics were analyzed using the Germinator analysis tool in order to obtain the parameters: Gmax (maximum germination) and t50 (time needed to reach 50% of the Gmax). The Germinator analysis tool is an add-in in for excel developed by the University of Wageningen: Joosen, R. V. L., J. Kodde, et al. (2010). (“Germinator: A Software Package for High-Throughput Scoring and Curve Fitting of Arabidopsis Seed Germination.” The Plant Journal 62(1): 148-159.)
Test compounds were dissolved in DMSO at a concentration of 50 mM and stored at −20° C. The strigolactone analogue GR24 (commercially available as a racemic mixture of 2 diastereoisomers, referred to as “synthetic strigolactone GR-24” and first prepared by Johnson A. W. & all, Journal of the Chemical Society, Perkin Transactions 1, 1981, page 1734-1743) was included as positive control. Germination solutions were prepared by diluting the stock solutions with demineralized water till 25 μM. As control solutions demineralized water and a 0.05% v/v DMSO solution were used.

[4] = Table 5, 0.01 mg l^-1, seed lot IN153
[5] = Table 5, 0.1 mg l^-1, seed lot IN153
[6] = Table 3, 0.001 mg l^-1, seed lot IN146, 10 days at 20° C. in the dark
[7] = Table 3, 0.01 mg l^-1, seed lot IN146
[8] = Table 3, 0.1 mg l^-1, seed lot IN146
[9] = Table 7, tropical cauliflower 3C150, seed batch 11B295 (Chili 2011)
[10] = Table 8, tropical cauliflower 3C150, seed batch 11B552 (South Africa 2010)
[11] = Table 4, 0.001 mg l^-1, seed lot IN153
[12] = Table 4, 0.01 mg l^-1, seed lot IN153
[13] = Table 4, 0.1 mg l^-1, seed lot IN153
[14] = Table 6, 0.001 mg l^-1, seed lot IN153
[15] = Table 6, 0.01 mg l^-1, seed lot IN153
[16] = Table 6, 0.1 mg l^-1, seed lot IN153

| SMILES | Germination (%) [1, 4] | Germination (%) [1, 5] | Germination inducing effect on Orobanche cumana seeds (summary in words) [1] | Germination (%) [2] | Germination (%) [1, 6] | Germination (%) [1, 7] | Germination (%) [1, 8] | Gmax (total germination) [3, 9] | stimulation (extra germination compared to the DMSO treatment, expressed as percentage of the DMSO treatment) ([3]; Table 7) | Gmax (total germination) [3, 10] | acceleration (hours faster than the DMSO treatment to reach 50% of total germination) ([3]; Table 8) | t50 (time needed to reach 50% of total germination) ([3]; Table 8) | Germination (%) [1, 11] | Germination (%) [1, 12] | Germination (%) [1, 13] | Germination (%) [1, 14] | Germination (%) [1, 15] | Germination (%) [1, 16] | Germination (%) ([1]; Table 5, 0.001 mg l^-1, seed lot IN153) |
| --- | --- | --- | --- | --- | --- | --- | --- | --- | --- | --- | --- | --- | --- | --- | --- | --- | --- | --- | --- |
| CC1=C[C@@H](O/C=C2/C(=O)N[C@@H]3C4=CCCC[C@H]4C[C@H]23)OC1=O [Compound B2, (3E,3aR,4aS,8bS)-3-[[(2S)-4-methyl-5-oxo-2H-furan-2-yl]oxymethylene]-1,3a,4,4a,5,6,7,8b-octahydroindeno[1,2-b]pyrrol-2-one] | 80.4% | 89.2% | germination inducing effect | 91.8% | – | – | – | – | – | – | – | – | – | – | – | – | – | – | – |
| CC1=CC(O/C=C2/C(=O)N[C@@H]3C4=C(CCCC4(C)C)C[C@H]23)OC1=O (stereo partly drawn) [Compound P1, (3E,3aR,8bS)-8,8-dimethyl-3-[(4-methyl-5-oxo-2H-furan-2-yl)oxymethylene]-3a,4,5,6,7,8b-hexahydro-1H-indeno[1,2-b]pyrrol-2-one] | – | – | germination inducing effect | – | 88% | 88% | 88.4% | 55.0% | 80.0% | 95.0% | 6.6 h | 74.3 h | – | – | – | – | – | – | – |
| CC1=C[C@H](O/C=C2/C(=O)N[C@@H]3C4=CCCC[C@H]4C[C@H]23)OC1=O [Compound P2, (3E,3aR,4aS,8bS)-3-[[(2R)-4-methyl-5-oxo-2H-furan-2-yl]oxymethylene]-1,3a,4,4a,5,6,7,8b-octahydroindeno[1,2-b]pyrrol-2-one] | – | – | germination inducing effect | – | – | – | – | – | – | – | – | – | 92.6% | 91.0% | 91.0% | – | – | – | – |
| CC1=CC(O/C=C2/C(=O)N[C@@H]3C4=CCC[C@H]4C[C@H]23)OC1=O (some centres unmarked) [Compound P4, 3E 3-[[4-methyl-5-oxo-2H-furan-2-yl]oxymethylene]-1,3a,4,4a,5,6,7b-hexahydropentaleno[1,2-b]pyrrol-2-one] | – | – | germination inducing effect | – | – | – | – | – | – | – | – | – | – | – | – | 73.4% | 82.6% | 68.4% | – |
| CC1=C[C@H](O/C=C2/C(=O)N(C(=O)OC(C)(C)C)[C@@H]3C4=CCC[C@H]4C[C@H]23)OC1=O [Compound P5, Tert-butyl (3E,3aR,4aS,7bS)-3-[[4-methyl-5-oxo-2H-furan-2-yl]oxymethylene]-2-oxo-3a,4,4a,5,6,7b-hexahydropentaleno[1,2-b]pyrrole-1-carboxylate] | – | – | – | – | – | – | – | – | – | – | – | – | – | – | – | 90.6% | 80.8% | 89.6% | – |
| CC1=C[C@H](O/C=C2/C(=O)O[C@@H]3c4ccccc4C[C@H]23)OC1=O [GR24, reference compound] | 86.6% | 95.2% | – | – | 20.4% | 61.0% | 86.2% | 73.0% | 140.0% | 100.0% | 8.7 h | 72.2 h | 67% | 65% | 78.4% | 26% | 51% | 84.2% | 88% |
